# Laboratory results as given in patent publication US8394848B2, “Compounds that modulate intracellular calcium” (Calcimedica, Inc., priority 2008, dated 2013).
# System: JR251 or RBL cells
# Experiment: Store-operated calcium entry, either JR251 or RBL cells, or both
# Format: cell-based
# Method in brief: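 Orai1/STIM1 stable cells: fluo-4-AM loaded, compound 30 min at RT in Ca2+-free HBSS, then CaCl2 added; IC50 from Peak-Basal FLIPR fluorescence. RBL-2H3 cells: compound 5 min, then thapsigargin (5.5× stock, 5.5 uM) 25 min, then calcium added; IC50 from Upslope (signal 7 s after calcium minus baseline).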
row,SMILES,IC50
1,"O=C(CSc1ccccc1)Nc1scc(-c2ccc(Cl)cc2Cl)c1C(=O)O [4-(2,4-dichlorophenyl)-2-(2-(phenylthio)acetamido)thiophene-3-carboxylic acid]",< 10 µM
2,"O=C(Nc1scc(-c2ccc3c(c2)CCC3)c1C(=O)O)c1nc2ccccc2o1 [2-(benzo[d]oxazole-2-carboxamido)-4-(2,3-dihydro-1H-inden-5-yl)thiophene-3-carboxylic acid]",< 10 µM
3,"O=C(Nc1scc(-c2cc(F)c(Cl)c(F)c2)c1C(=O)O)c1cc2ccccc2o1 [2-(benzofuran-2-carboxamido)-4-(4-chloro-3,5-difluorophenyl)thiophene-3-carboxylic acid]",< 10 µM
4,"Cc1ccc(-c2csc(NC(=O)c3cc(Cl)sc3Cl)c2C(=O)O)cc1 [2-(2,5-dichlorothiophene-3-carboxamido)-4-p-tolylthiophene-3-carboxylic acid]",< 10 µM
5,O=C(Nc1scc(-c2ccc(Br)cc2)c1C(=O)O)c1ccc(-c2ccccc2)s1 [4-(4-bromophenyl)-2-(5-phenylthiophene-2-carboxamido)thiophene-3-carboxylic acid],< 10 µM
6,CC(=O)Oc1cccc2cc(-c3csc(NC(=O)c4cc5ccccc5o4)c3C(=O)O)oc12 [4-(7-acetoxybenzofuran-2-yl)-2-(benzofuran-2-carboxamido)thiophene-3-carboxylic acid],< 10 µM
7,Cc1ccc(-c2csc(NC(=O)c3nc4ccccc4s3)c2C(=O)O)c(F)c1 [2-(benzo[d]thiazole-2-carboxamido)-4-(2-fluoro-4-methylphenyl)thiophene-3-carboxylic acid],< 10 µM
8,Cc1ccc(-c2csc(NC(=O)c3nc4ccccc4o3)c2C(=O)O)cc1F [2-(benzo[d]oxazole-2-carboxamido)-4-(3-fluoro-4-methylphenyl)thiophene-3-carboxylic acid],< 10 µM
9,"O=C(O)c1c(-c2ccc(Cl)cc2)csc1NC(=O)C1Cc2ccccc2C1 [4-(4-chlorophenyl)-2-(2,3-dihydro-1H-indene-2-carboxamido)thiophene-3-carboxylic acid]",< 10 µM
10,O=C(NCCc1ccccc1)Nc1scc(-c2ccc(Cl)cc2)c1C(=O)O [4-(4-chlorophenyl)-2-(3-phenethylureido)thiophene-3-carboxylic acid],< 10 µM
11,O=C(Nc1scc(-c2cc3cccc(-c4cn[nH]c4)c3o2)c1C(=O)O)c1cc2ccccc2o1 [4-(7-(1H-pyrazol-4-yl)benzofuran-2-yl)-2-(benzofuran-2-carboxamido)thiophene-3-carboxylic acid],< 10 µM
12,COc1c(C(=O)Nc2scc(-c3ccc(Cl)cc3)c2C(=O)O)csc1Cl [2-(5-chloro-4-methoxythiophene-3-carboxamido)-4-(4-chlorophenyl)thiophene-3-carboxylic acid],< 10 µM
13,O=C(Nc1scc(-c2ccc(Cl)cc2)c1C(=O)O)OCc1ccccc1Cl [2-((2-chlorobenzyloxy)carbonylamino)-4-(4-chlorophenyl)thiophene-3-carboxylic acid],< 10 µM
14,"Cc1noc(C)c1C(=O)Nc1scc(-c2ccc(Cl)cc2)c1C(=O)O [4-(4-chlorophenyl)-2-(3,5-dimethylisoxazole-4-carboxamido)thiophene-3-carboxylic acid]",< 10 µM
15,"O=C(CCc1ccccc1)Nc1scc(-c2cc(F)c(Cl)cc2Cl)c1C(=O)O [4-(2,4-dichloro-5-fluorophenyl)-2-(3-phenylpropanamido)thiophene-3-carboxylic acid]",< 10 µM
16,O=C(Nc1scc(-c2cc3cccc(O)c3o2)c1C(=O)O)c1cc2cccc(O)c2o1 [2-(7-hydroxybenzofuran-2-carboxamido)-4-(7-hydroxybenzofuran-2-yl)thiophene-3-carboxylic acid],< 10 µM
17,O=C(O)c1c(-c2ccc(Cl)cc2)csc1NC(=O)C(Cc1ccccc1)n1cnnn1 (centres unmarked) [4-(4-chlorophenyl)-2-(3-phenyl-2-(1H-tetrazol-1-yl)propanamido)thiophene-3-carboxylic acid],< 10 µM
